Where “and” joins values, the source holds several entries; their conditions need not be identical. Equal entries are not always repeated. Where two headings read alike, the source gives them in different places.
How the values were obtained:
Format in all cases: cell-based
[1] = system: TNF-α release from microglia; test: TNF-α release from LPS/IFNγ stimulated microglia, TNF-α ELISA (Example 11); details: for % inhibition: individual replicates; for TNF-α ELISA raw reading (not NO; the printed μM unit is unsupported): 3 replicates; for inhibition at 50 µM: Microglia
Method: Also, bis- and tris-dihydroxyaryl compound's ability to inhibit NO release strongly supports their interference with the inflammatory cascade and utlimately inhibition of inflammation. Microglia cells were plated at 1×10^5 cells/ml into 96 well plates. At day three, they were treated with 50 μM bis- and tris-dihydroxyaryl compound for 1 hour and then exposed to 10 μg/ml LPS+10 ng/ml IFNγ for 24 hours. 10 μl of media was removed and stored at −80° until TNF-α ELISA assays were performed. Samples were diluted 1:50 before running the TNF-α ELISA (kit commercially available from Sigma).

microglia = test: Ranking of NO release inhibition (Example 12); details: Microglia, ranking table
Source text: The bis- and tris-dihydroxyaryl compounds were ranked in order of effectiveness for the inhibition of NO release as set out in Table 8.

[2] = system: EOC 13.31 microglial cells; test: NO release inhibition screen in LPS/IFNγ stimulated microglia, Griess reaction at 48 hours (Example 7); details: for μM NO release Avg / % inhibition / inhibition at 50 µM: 50 uM + 10 μg/ml LPS/10 ng/ml IFNγ, 48 hours; for % inhibition: 50 µM; for inhibition at 50 µM: Microglia, 48 h; for inhibition of NO release, in words: 50 uM, LPS/IFNγ stimulated microglia
Method: In this experiment, additional bis- and tris-dihydroxyaryl compounds were screened for their ability to inhibit nitric oxide release from microglial cells. Microglial cells stimulated with LPS/IFNγ release nitric oxide. […] This is a continuation of screening experiments. EOC 13.31 microglial cells were plated into 96 well plates. At 24 hours and at confluency, cells were treated with 10 μg/ml LPS/10 ng/ml IFNγ+50 uM bis- and tris-dihydroxyaryl compounds.

[3] = system: EOC 13.31 microglia cells; test: Inhibition of NO release from microglia following 24 hours pretreatment (Example 10); details: for inhibition at 50 µM: Microglia
Method: This experiment was designed to determine if pretreatment for 24 hours with bis- and tris-dihydroxyaryl compounds changes NO inhibition previously observed with concurrent exposure of bis- and tris-dihydroxyaryl compounds. […] This study seeks to determine if pretreatment with bis- and tris-dihydroxyaryl compounds increases NO release inhibition. EOC 13.31 microglia cells were plated at 1×10^6 cells/ml in 96 well plates. After 48 hours, confluent cells were exposed to 50 μM compound (stock 10 mM in DMSO) prepared in fresh cell culture media. After 24 hours, 10 μg/ml LPS and 10 ng/ml IFNγ was added to wells directly without a media change. Cells were incubated for a further 48 hours and nitric oxide release was measured using the Griess Reaction.

[4] = system: EOC 13.31 microglia cells; test: NO release inhibition in LPS/IFNγ stimulated microglia, concurrent treatment, Griess reaction at 24 hours (Example 6); details: 24 hours; for NO release, Avg: 50 μM; for inhibition at 50 µM: Microglia
Method: The purpose of this experiment was to screen compounds 3, 4, 21, 26, 51, 52, 66, and 78 for their ability to inhibit Nitric oxide release from microglia. […] EOC 13.31 microglia cells were plated into 96 well plates for 24 hours. Confluent cells were treated with 50 μM of the bis- and tris-dihydroxyaryl compounds either with or without stimulation at 1 pg/ml LPS, and 1 ng/ml IFNγ. NO release was measured at 24 hours using the Griess reaction which is a spectrophotometric measure of NO release (reagents from Promega).

[5] = 50 uM compound, TNF-α release, 10 ug LPS and 10 ng IFNγ, 24 hours
[6] = 50 uM compound, TNF-α release, 10 ug LPS and 10 ng IFNγ, 24 hours, 50 µM
[7] = 50 uM compound, 10 ug LPS and 10 ng IFNγ, 24 hours
[8] = 50 μM pretreatment, read-out: inhibition of NO release following pretreatment
[9] = single replicates, read-out: % inhibition
[10] = 24 h, 50 uM compound, TNF-α release, 10 ug LPS and 10 ng IFNγ, 24 hours, read-out: Avg % Inhibition
[11] = 50 uM pretreatment 24 hours, then LPS/IFNγ 48 hours, single replicates
[12] = 50 uM pretreatment 24 hours, then LPS/IFNγ 48 hours, read-out: Avg % Inhibition
[13] = 50 uM pretreatment 24 hours, then LPS/IFNγ 48 hours, single replicates, read-out: % inhibition

| Structure (SMILES) | Avg % Inhibition [1, 5] | % inhibition [1, 6] | TNF-α ELISA raw reading (not NO; the printed μM unit is unsupported) [1, 7] | inhibition at 50 µM (microglia) | μM NO release Avg [2] | % inhibition ([2]; single replicates) | inhibition at 50 µM ([2]; read-out: Avg. % Inhibition) | inhibition at 50 µM [2, 9] | other results |
| --- | --- | --- | --- | --- | --- | --- | --- | --- | --- |
| O=C(Nc1ccc(O)c(O)c1)Nc1ccc(O)c(O)c1 [Compound 76-2] | −9.81% | −8.66% and −11.12% and −9.64% | 0.849 µM and 0.840 µM and 0.834 µM |  |  |  |  |  |  |
| C[C@@H]1C[C@H]2[C@@H]3CCC4=CC(=O)C=C[C@]4(C)[C@@]3(F)[C@@H](O)C[C@]2(C)[C@@]1(O)C(=O)CO [Dexamethasone, reference compound] |  |  |  |  |  |  |  |  | inhibition at 50 µM ([1]; 50 μM for 1 hour, then 10 μg/ml LPS + 10 ng/ml IFNγ for 24 hours, read-out: inhibition of TNF-α release): 72.4% |
| Cc1nc(-c2ccc(O)c(O)c2)cc(-c2ccc(O)c(O)c2)c1C#N [Compound 8, 4,6-bis(3,4-dihydroxyphenyl)-3-cyano-2-methylpyridine] |  |  |  | 92% | 25.265 µM | 8.03% and 2.30% and 9.14% | 6.49% |  |  |
| CN1C2CCC1C(Cc1ccc(O)c(O)c1)C(=O)C2Cc1ccc(O)c(O)c1 (stereo not drawn) [Compound 19, 2,4-bis(3,4-dihydroxybenzyl)-3-tropinone] |  |  |  | 4% | 25.828 µM | 5.75% and 3.45% | 4.41% | 4.02% | inhibition at 50 µM [3, 8]: > 75% |
| Oc1ccc(Cc2ccc(O)c(O)c2)cc1O [Compound 3-2] | 29.41% | 28.11% and 32.65% and 27.48% | 0.593 µM and 0.627 µM and 0.623 µM |  |  |  |  |  |  |
| O=C(NCc1ccc(O)c(O)c1)Nc1ccc(O)c(O)c1 [Compound 77-1] | 2.58% | 4.66% and 4.16% and −1.10% | 0.756 µM and 0.788 µM and 0.753 µM |  |  |  |  |  |  |
| Oc1ccc(CN2CCN(Cc3ccc(O)c(O)c3)CC2)cc1O [Compound 9, 1,4-bis(3,4-dihydroxybenzyl)piperazine] |  |  |  | 3% | 26.299 µM | −0.57% (2×) and 9.14% | 2.66% |  |  |
| O=C(C=Cc1ccc(O)c(O)c1)NCc1ccc(O)c(O)c1 [Compound 61, 3,4-dihydroxycinnamic acid 3,4-dihydroxybenzylamide] |  | −3.40% and −17.04% and −7.51% |  | 21% | 21.285 µM | 19.18% and 24.19% | 21.2% | 20.3% | inhibition at 50 µM [1, 10]: -9.32%; inhibition of NO release, in words [2]: effective inhibitors of NO release |
| O=C(CCC(=O)Nc1ccc(O)c(O)c1)Nc1ccc(O)c(O)c1 [Compound 66-2] | −13.70% | −14.08% and −17.70% and −9.32% | 0.889 µM and 0.838 µM and 0.867 µM |  |  |  |  |  |  |
| O=C(c1ccc(O)c(O)c1)N1CCN(C(=O)c2ccc(O)c(O)c2)CC1 [Compound 23, 1,4-bis(3,4-dihydroxybenzoyl)piperazine] |  | −23.78% and −15.89% and −17.96% |  | 13% | 23.394 µM | 13.60% and 9.70% | 13.4% | 16.9% | inhibition at 50 µM [1, 10]: -19.2% |
| CN1C2CCC1C(Cc1ccc(O)c(O)c1)C(=O)C2Cc1ccc(O)c(O)c1 (stereo not drawn) [Compound 19-2] | 9.42% | 7.78% and 8.44% and 12.05% | 0.730 µM and 0.708 µM and 0.734 µM |  |  |  |  |  | Avg % Inhibition ([3]; 50 uM pretreatment 24 hours, then LPS/IFNγ 48 hours): 82.93%; % inhibition [3, 11]: 73.11% and 91.80% and 83.87%; OD values (printed under head μM NO release) [3, 11]: 0.135 and 0.161 and 0.195; μM NO release [3, 11]: 1.620 µM and 3.188 µM and 5.313 µM |
| O=C(c1ccc(O)c(O)c1)C(O)c1ccc(O)c(O)c1 (stereo not drawn) [Compound 1, 3,4,3′,4′-tetrahydroxybenzoin] |  | −16.55% and −17.04% and −18.19% |  | 18% | 22.038 µM | 20.29% and 18.62% | 18.4% | 16.4% | inhibition at 50 µM [1, 10]: -17.3% |
| Oc1ccc(CN[C@@H]2CCCC[C@H]2NCc2ccc(O)c(O)c2)cc1O (relative stereo) [Compound 12, N,N′-bis(3,4-dihydroxybenzyl)-trans-1,2-diaminocyclohexane] |  | 15.81% and 25.24% and 10.54% |  | 32% | 18.976 µM | 26.72% and 33.23% | 31.6% | 34.9% | inhibition at 50 µM [1, 10]: 17.2%; inhibition of NO release, in words [2]: effective inhibitors of NO release |
| O=C(Nc1ccc(O)c(O)c1)c1ccc(O)c(O)c1 [Compound 51-4] |  | −20.13% and −17.25% and −11.34% | 0.907 µM and 0.870 µM and 0.925 µM |  |  |  |  |  | Avg % Inhibition [1, 6]: −16.24% |
| O=C(Nc1ccc(O)c(O)c1)c1ccc(O)c(O)c1 [Compound 51-1] |  | −17.57% and −12.94% and −13.42% | 0.880 µM and 0.883 µM and 0.909 µM |  |  |  |  |  | Avg % Inhibition [1, 6]: −14.64% |
| O=C(Nc1ccc(O)c(O)c1)Nc1ccc(O)c(O)c1 [Compound 76, 1,3-bis(3,4-dihydroxyphenyl)urea] |  |  |  | 14% | 23.745 µM | 11.52% and 12.60% | 14.4% | 19.1% | % inhibition [3, 11]: 75.64% and 78.81%; inhibition at 50 µM [3, 12]: 76.3%; inhibition at 50 µM [3, 13]: 74.4%; inhibition at 50 µM [3, 8]: > 75% |
| Oc1ccc(CCc2ccc(O)c(O)c2)cc1O [Compound 4-3] | 89.89% | 88.39% and 91.14% and 90.14% | 0.177 µM and 0.185 µM and 0.199 µM |  |  |  |  |  | inhibition of TNF-α release ([1]; 50 μM for 1 hour, then 10 μg/ml LPS + 10 ng/ml IFNγ for 24 hours): 89% |
| O=C(NCc1ccc(O)c(O)c1)Nc1ccc(O)c(O)c1 [Compound 77, 1-(3,4-dihydroxyphenyl)-3-(3,4-dihydroxybenzyl)urea] |  |  |  | 12% | 24.398 µM | 9.89% | 12.1% | 14.2% | % inhibition [3, 11]: 99.39%; inhibition at 50 µM [3, 12]: 96.8%; inhibition at 50 µM [3, 13]: 91.8%; inhibition at 50 µM [3, 8]: > 75% |
| O=C(Nc1ccc(O)c(O)c1)c1ccc(O)c(O)c1 [Compound 51, 3,4-dihydroxybenzoic acid 3,4-dihydroxyanilide] |  |  |  |  |  |  |  |  | NO release, Avg ([4]; Compound + LPS/IFNγ): 20.6633 µM; NO release, Avg ([4]; Compound Only (without LPS/IFNγ)): 1.2500 µM; inhibition at 50 µM ([4]; Compound + LPS/IFNγ, read-out: % inhibition of NO release): -11%; inhibition at 50 µM ([4]; Table 2 summary, LPS/IFNγ, read-out: % Inhibition (summary of inhibition of NO release)): -11%; % inhibition [3, 11]: 47.81% and 59.20%; inhibition at 50 µM [3, 12]: 56%; inhibition at 50 µM [3, 13]: 61.1% |
| O=C(NCc1ccc(O)c(O)c1)C(=Cc1ccc(O)c(O)c1)NC(=O)c1ccc(O)c(O)c1 [Compound 21-2] | −23.18% | −25.92% and −23.45% and −20.16% | 0.924 µM and 0.904 µM and 0.939 µM |  |  |  |  |  |  |
